Data as given in ChEMBL document CHEMBL1671854, “ramR mutations involved in efflux-mediated multidrug resistance in Salmonella enterica serovar Typhimurium” (2008).

Experiments:
Assay type in all cases: functional, Salmonella enterica subsp. enterica serovar Typhimurium
Salmonella typhimurium [1] = assay: Antimicrobial activity against Salmonella enterica serovar Typhimurium BN18 by agar doubling dilution method
Salmonella typhimurium [2] = assay: Antimicrobial activity against Salmonella enterica serovar Typhimurium BN18/71 harboring plasmid encoded RamR gene, GyrA G81C,acrR mutant genes by agar doubling dilution method
Salmonella typhimurium [3] = assay: Antimicrobial activity against multidrug-resistant Salmonella enterica serovar Typhimurium 543SA98 harboring plasmid encoded RamR gene, GyrA S83Y mutant gene by agar doubling dilution method
Salmonella typhimurium [4] = assay: Antimicrobial activity against Salmonella enterica serovar Typhimurium BN18/71 harboring GyrA G81C, acrR mutant genes by agar doubling dilution method
Salmonella typhimurium [5] = assay: Antimicrobial activity against Salmonella enterica serovar Typhimurium BN18/41 harboring GyrA G81C,acrR mutant genes by agar doubling dilution method
Salmonella typhimurium [6] = assay: Antimicrobial activity against ramA::kan-deficient Salmonella enterica serovar Typhimurium S/921495 by agar doubling dilution method
Salmonella typhimurium [7] = assay: Antimicrobial activity against multidrug-resistant Salmonella enterica serovar Typhimurium 102SA00 harboring GyrA S83A and D87N, GyrB S464F and ParC S80I mutant genes by agar doubling dilution method
Salmonella typhimurium [8] = assay: Antimicrobial activity against multidrug-resistant Salmonella enterica serovar Typhimurium 902SA92 harboring GyrA S83A and D87N, GyrB S464F and ParC S80I mutant genes by agar doubling dilution method
Salmonella typhimurium [9] = assay: Antimicrobial activity against ramA::kan-deficient Salmonella enterica serovar Typhimurium BN9181 by agar doubling dilution method
Salmonella typhimurium [10] = assay: Antimicrobial activity against Salmonella enterica serovar Typhimurium BN18 harboring plasmid encoded RamR gene by agar doubling dilution method
Salmonella typhimurium [11] = assay: Antimicrobial activity against ramA::kan-deficient Salmonella enterica serovar Typhimurium BN9945 by agar doubling dilution method
Salmonella typhimurium [12] = assay: Antimicrobial activity against Salmonella enterica serovar Typhimurium S/921495 harboring plasmid encoded RamR gene by agar doubling dilution method
Salmonella typhimurium [13] = assay: Antimicrobial activity against soxS::kan-deficient Salmonella enterica serovar Typhimurium S/921495 by agar doubling dilution method
Salmonella typhimurium [14] = assay: Antimicrobial activity against ramR-deficient Salmonella enterica serovar Typhimurium S/921495 by agar doubling dilution method
Salmonella typhimurium [15] = assay: Antimicrobial activity against Salmonella enterica serovar Typhimurium BN18/41 harboring plasmid encoded RamR gene, GyrA G81C,acrR mutant genes by agar doubling dilution method
Salmonella typhimurium [16] = assay: Antimicrobial activity against multidrug-resistant Salmonella enterica serovar Typhimurium BN10055 harboring plasmid encoded RamR gene, GyrA S83Y mutant gene by agar doubling dilution method
Salmonella typhimurium [17] = assay: Antimicrobial activity against ramA::kan-deficient Salmonella enterica serovar Typhimurium BN10055 harboring GyrA S83Y mutant gene by agar doubling dilution method
Salmonella typhimurium [18] = assay: Antimicrobial activity against ramA::kan-deficient Salmonella enterica serovar Typhimurium BN18/71 harboring plasmid encoded RamR gene, GyrA G81C,acrR mutant genes by agar doubling dilution method
Salmonella typhimurium [19] = assay: Antimicrobial activity against multidrug-resistant Salmonella enterica serovar Typhimurium BN9945 harboring plasmid encoded RamR gene by agar doubling dilution method
Salmonella typhimurium [20] = assay: Antimicrobial activity against ramA::kan-deficient Salmonella enterica serovar Typhimurium BN18 by agar doubling dilution method
Salmonella typhimurium [21] = assay: Antimicrobial activity against ramA::kan-deficient Salmonella enterica serovar Typhimurium 543SA98 harboring GyrA S83Y mutant gene by agar doubling dilution method
Salmonella typhimurium [22] = assay: Antimicrobial activity against Salmonella enterica serovar Typhimurium BN18/21 harboring plasmid encoded RamR gene by agar doubling dilution method
Salmonella typhimurium [23] = assay: Antimicrobial activity against marR::kan-deficient Salmonella enterica serovar Typhimurium S/921495 by agar doubling dilution method
Salmonella typhimurium [24] = assay: Antimicrobial activity against soxR::kan-deficient Salmonella enterica serovar Typhimurium S/921495 by agar doubling dilution method
Salmonella typhimurium [25] = assay: Antimicrobial activity against Salmonella enterica serovar Typhimurium BN18/21 by agar doubling dilution method
Salmonella typhimurium [26] = assay: Antimicrobial activity against ramA::kan-deficient Salmonella enterica serovar Typhimurium BN18/41 harboring plasmid encoded RamR gene, GyrA G81C,acrR mutant genes by agar doubling dilution method
Salmonella typhimurium [27] = assay: Antimicrobial activity against ramA::kan-deficient Salmonella enterica serovar Typhimurium 102SA00 harboring GyrA S83A and D87N, GyrB S464F and ParC S80I mutant genes by agar doubling dilution method
Salmonella typhimurium [28] = assay: Antimicrobial activity against ramA::kan-deficient Salmonella enterica serovar Typhimurium BN18/21 by agar doubling dilution method
Salmonella typhimurium [29] = assay: Antimicrobial activity against marR-deficient Salmonella enterica serovar Typhimurium S/921495 by agar doubling dilution method
Salmonella typhimurium [30] = assay: Antimicrobial activity against ramA::kan-deficient Salmonella enterica serovar Typhimurium 902SA92 harboring GyrA S83A and D87N, GyrB S464F and ParC S80I mutant genes by agar doubling dilution method
Salmonella typhimurium [31] = assay: Antimicrobial activity against multidrug-resistant Salmonella enterica serovar Typhimurium BN9181 harboring plasmid encoded RamR gene by agar doubling dilution method
Salmonella typhimurium [32] = assay: Antimicrobial activity against marA::kan-deficient Salmonella enterica serovar Typhimurium S/921495 by agar doubling dilution method
Salmonella typhimurium [33] = assay: Antimicrobial activity against multidrug-resistant Salmonella enterica serovar Typhimurium 543SA98 harboring GyrA […] mutant gene by agar doubling dilution method
Salmonella typhimurium [34] = assay: Antimicrobial activity against multidrug-resistant Salmonella enterica serovar Typhimurium BN10055 harboring GyrA S83Y mutant gene by agar doubling dilution method
Salmonella typhimurium [35] = assay: Antimicrobial activity against multidrug-resistant Salmonella enterica serovar Typhimurium BN9945 by agar doubling dilution method
Salmonella typhimurium [36] = assay: Antimicrobial activity against multidrug-resistant Salmonella enterica serovar Typhimurium 902SA92 harboring plasmid encoded RamR gene, GyrA S83A and D87N, GyrB S464F and ParC S80I mutant genes by agar doubling dilution method
Salmonella typhimurium [37] = assay: Antimicrobial activity against Salmonella enterica serovar Typhimurium S/921495 by agar doubling dilution method
Salmonella typhimurium [38] = assay: Antimicrobial activity against ramR-deficient Salmonella enterica serovar Typhimurium S/921495 harboring plasmid encoded RamR gene by agar doubling dilution method
Salmonella typhimurium [39] = assay: Antimicrobial activity against multidrug-resistant Salmonella enterica serovar Typhimurium 102SA00 harboring plasmid encoded RamR gene, GyrA S83A and D87N, GyrB S464F and ParC S80I mutant genes by agar doubling dilution method
Salmonella typhimurium [40] = assay: Antimicrobial activity against multidrug-resistant Salmonella enterica serovar Typhimurium BN9181 by agar doubling dilution method
Salmonella typhimurium [41] = assay: Antimicrobial activity against ramR::kan-deficient Salmonella enterica serovar Typhimurium S/921495 by agar doubling dilution method

Measured: MIC

O=C(O)c1cn(C2CC2)c2cc(N3CCNCC3)c(F)cc2c1=O [CIPROFLOXACIN]
2 µg/mL: Salmonella typhimurium [2] | Salmonella typhimurium [5] | Salmonella typhimurium [18]
1 µg/mL: Salmonella typhimurium [16] | Salmonella typhimurium [34]
8 µg/mL: Salmonella typhimurium [4] | Salmonella typhimurium [27] | Salmonella typhimurium [30] | Salmonella typhimurium [36] | Salmonella typhimurium [39]
0.125 µg/mL: Salmonella typhimurium [3] | Salmonella typhimurium [11] | Salmonella typhimurium [19] | Salmonella typhimurium [21] | Salmonella typhimurium [25]
0.06 µg/mL: Salmonella typhimurium [14] | Salmonella typhimurium [22] | Salmonella typhimurium [28] | Salmonella typhimurium [41]
32 µg/mL: Salmonella typhimurium [7] | Salmonella typhimurium [8]
0.25 µg/mL: Salmonella typhimurium [17]
0.0075 µg/mL: Salmonella typhimurium [9]
0.5 µg/mL: Salmonella typhimurium [15] | Salmonella typhimurium [26] | Salmonella typhimurium [33] | Salmonella typhimurium [35]
0.015 µg/mL: all other assays above
